Results published in US9790496B2, “Microrna compounds and methods for modulating MIR-21 activity” (Regulus Therapeutics, Inc., priority 2011, dated 2017).
Where “and” joins values, the source holds several entries; their conditions need not be identical. Equal values may be shown once. Strand notation (5' to 3'): a small letter for the sugar, then the base; units joined by * are phosphorothioate-linked, units joined directly phosphodiester-linked; [ ] holds rarer units or linkages, { } end groups; capitals alone tell only the bases. e = 2'-O-(2-methoxyethyl) (MOE); f = 2'-fluoro

Columns and labels:
[1] = system: ischemia reperfusion injury/nephrectomy (IR/Nx) model; experiment: Ischemia reperfusion injury/nephrectomy (IR/Nx) model: urinary albumin to creatinine ratio; format: in vivo, mouse; settings: s.c. 20 mg/kg on days 2, 3, 4, 8, urine day 9, PBS control 127, nephrectomy-only 16
Source text: An ischemia reperfusion injury/nephrectomy (IR/Nx) model is created in the mouse through temporary unilateral clamping of an artery in one kidney, which leads to tubule damage, inflammation, and fibrosis, followed by removal of the second kidney at a later timepoint. In this model, the acute kidney dysfunction phase is useful to test candidate agents for the treatment of acute kidney injury (i.e. up to about the first 5 days), and the later phases of kidney dysfunction are useful to model chronic fibrosis (i.e. after about the first 5 days).
Anti-miR-21 compounds were tested in the IR/Nx model. 25109, a 6-base mismatch to miR-21, was used as a control compound ([…]; where nucleosides not followed by a subscript indicate β-deoxynucleosides; nucleosides followed by a subscript “E” indicate 2′-MOE nucleosides; nucleosides followed by a subscript “S” indicate S-cEt nucleosides; and all internucleoside linkages are phosphorothioate internucleoside linkages).
Unilateral IR was induced for a period of 30 minutes. Treatment groups were as follows: sham IR procedure; IR with PBS administered subcutaneously; IR with mismatched control 25109 administered subcutaneously at a dose of 20 mg/kg; IR with anti-miR-21 compound 25070 administered subcutaneously at a dose of 20 mg/kg; and IR with anti-miR-21 compound 25923 administered subcutaneously at a dose of 20 mg/kg. PBS or anti-miR was administered on days 2, 3, 4, and 8 following IR. On day 8, the healthy kidney was removed by nephrectomy from each animal, and animals were sacrificed on day 9. Just prior to sacrifice, urine was collected by direct bladder puncture.
Urinary albumin to creatinine ratio was measured in the urine from each mouse. […] The geometric mean of the albumin to creatinine ratio in each group of mice was 16 μgAlb/mgCr (nephrectomy-only control), 127 μgAlb/mgCr (IR/Nx, PBS control), 140 μgAlb/mgCr (IR/Nx, 25109 control), 40 μgAlb/mgCr (IR/Nx, 25070), and 31 μgAlb/mgCr (IR/Nx, 25923). Blood urea nitrogen and serum creatinine levels were similar across all IR/Nx mice, and were elevated relative to nephrectomy-only control mice (data not shown).

[2] = Ex vivo liver homogenate stability assay (HPLC-TOF MS)
[3] = system: collagen 1A1 and collagen 3A1 expression in kidney, unilateral ureteral obstruction (UUO) model; experiment: UUO model of kidney fibrosis: kidney collagen 1A1 and collagen 3A1 expression by real-time PCR; format: in vivo, mice; settings: UUO, 20 mg/kg at days -3, -1, +5 (prophylactic); kidney at day 11; real-time PCR normalized to GAPDH then sham; 20 mg/kg
Method: Unilateral ureteral obstruction (UUO) is a well-established experimental model of renal injury leading to interstitial fibrosis, and thus is used as an experimental model that is reflective of human kidney disease. UUO is induced by surgically ligating a single ureter. As fibrosis is characterized by an increase in collagen, the presence and extent of kidney fibrosis may be determined by measuring collagen content. Both collagen 1A1 (Col 1A1) and collagen 3A1 (Col 3A1) are measured to assess collagen content. Kidney fibrosis may be visualized by staining tissue samples with picro-sirius red to detect increases in collagen content. Kidney fibrosis may also be observed by measuring the amount of hydroxyproline, which is a major component of collagen, in a sample.
The cEt-containing anti-miR-21 compounds found to be active in the luciferase assay were tested in the UUO model of kidney fibrosis. 25919 comprising 2′-MOE and 2′-fluoro modifications is known to inhibit miR-21 activity in vivo and was included as a positive control. Groups of 8 animals each were treated as follows: UUO only, UUO with PBS, or UUO with anti-miR-21 compound. Relative to the day of the UUO procedure, PBS or anti-miR-21 compound was administered at days −3, −1, and +5. Anti-miR-21 compounds were administered at a dose of 20 mg/kg. As the anti-miR compounds were administered prior to the UUO procedure, this dosing regimen is considered a prophylactic treatment. At day 11, animals were sacrificed and kidney was isolated for measurement of collagen expression. Collagen expression was measured by real-time PCR and normalized first to GAPDH and then to the sham control animals. […]

[4] = system: miR-21; experiment: miR-21 luciferase sensor assay in Hela cells; format: cell-based; settings: Hela cells
Method: The compounds were assessed for miR-21 inhibitory activity in a luciferase assay. A microRNA luciferase sensor construct was engineered using pGL3-MCS2 (Promega). The construct was introduced into Hela cells to test the ability of anti-miR compounds to inhibit activity of miR-21. In this assay, miR-21 present in the Hela cells binds to its cognate site(s) in the luciferase sensor construct, and suppresses luciferase expression. When the appropriate anti-miR is introduced into the cells, it binds to miR-21 and relieves suppression of luciferase expression. Thus, in this assay anti-miRs that are effective inhibitors of miR-21 expression will cause an increase in luciferase expression.
Day 1: Hela cells (ATCC), stably transfected with a luciferase construct engineered to contain a sequence complementary of miR-21, were seeded in T-170 flasks (BD Falcon) at 3.5*10^6 cells/flask. Hela cells were grown in Dulbecco's Modified Eagle Medium with High Glucose (Invitrogen).
Day 2: Each flask of Hela cells was transfected with 0.5 ug of a phRL sensor plasmid (Promega) expressing Renilla to be used in normalization. Hela cells were transfected using 20 ul Lipofectamine 2000/flask (Invitrogen). After 4 hours of transfection, cells were washed with PBS and trypsinized. Hela cells were plated at 40 k/well in 24 well plates (BD Falcon) and left overnight.
Day 3: Hela cells were transfected with anti-miRs using Lipofectin (Invitrogen) at 2.5 ul Lipofectin/100 nM ASO/ml Opti-MEM I Reduced Serum Medium (Invitrogen) for 4 hours. After ASO transfection, Hela cells were refed with Dulbecco's Modified Eagle Medium with High Glucose (Invitrogen).
Day 4: Hela cells are passively lysed and luciferase activity measured using the Dual-Luciferase Reporter Assay System (Promega).
The luciferase assay was performed to test the ability of anti-miRs with the nucleoside patterns described herein to inhibit the activity of miR-21. Results were compared to a ‘mock’ treatment, in which cells received no anti-miR treatment. The experiment was repeated and results of two experimental replicates are shown in the following Table B, as the luciferase value normalized to beta-galactosidase activity.
The luciferase assay was performed as described herein to test the ability of anti-miRs in Table F to inhibit the activity of miR-21. Results were compared to a ‘mock’ treatment, in which cells received no anti-miR treatment. The experiment was repeated and results of two experimental replicates are shown in the following Table D, as fold change in luciferase value relative to the mock treatment.

[5] = system: ischemia reperfusion injury (IRI) model; experiment: Unilateral IRI model: collagen area fraction of kidney tissue; format: in vivo, mouse
Method: (§1) A model of ischemia reperfusion injury (IRI) is created in the mouse through unilateral or bilateral clamping of kidney arteries, which leads to tubule damage, inflammation, and fibrosis. Kidney dysfunction can occur either early (<5 days) or late (>7 days) in this model, with the early time points useful to test candidate agents for the treatment of acute kidney injury, and the later time points useful to model chronic fibrosis.
(§2) Anti-miR-21 compounds were tested in the unilateral IRI model. Unilateral IRI was induced for a period of 30 minutes. Treatment groups were as follows: sham IRI procedure; IRI with PBS administered subcutaneously; IRI with anti-miR-21 compound 25070 administered intraperitoneally at a dose of 20 mg/kg; the 2′-fluoro/2′-MOE modified anti-miR-21 25919 administered intraperitoneally at a dose of 20 mg/kg; and a 2′-fluoro/2′ modified mismatch anti-miR-21 (having three mismatches to the sequence of miR-21) 25319 administered intraperitoneally at a dose of 20 mg/kg. PBS or anti-miR compound was administered on days 5, 6, and 7 following IRI, and animals were sacrificed 14 days after IRI. As anti-miR compound is administered 5 days following the injury to the kidney, or later, when fibrosis has already occurred to some extent, this treatment regimen is considered a therapeutic regimen, rather than a prophylactic regimen.
(§3) Kidney tissue was collected for analysis of collagen 1A1 and collagen 3A1 expression (shown in Table O), and collagen area fraction (shown in Table P).
(§4) A similar study was performed with the same treatment groups and additional days of treatment. In this study, treatments were administered intraperitoneally at days 5, 6, 7, 14, and 21 following the IRI procedure Animals were sacrificed on Day 27, and kidney tissue was collected for analysis of collagen 1A1 and collagen 3A1 expression, as well as collagen area fraction.

[6] = system: collagen 1A1 and collagen 3A1 expression in kidney, ischemia reperfusion injury (IRI) model; experiment: Unilateral ischemia reperfusion injury (IRI) model: kidney collagen 1A1 and collagen 3A1 expression; format: in vivo, mouse; settings: unilateral IRI
Method: as §1, §2, §3, §4
In order to assess the flexibility of administration of the anti-miR-21 compound 25070, the activity of the compound in the 14 day study above, where anti-miR-21 was administered at […] following the IRI procedure, to a different 14 day study where anti-miR-21 was administered intraperitoneally at days 3, 5, and 7 following the IRI procedure.

[7] = 5 μM in liver homogenate (50 mg tissue per ml), 24 hours at 37° C.
[8] = 4 nM oligonucleotide, mock transfection 50
[9] = .16 nM oligonucleotide, mock transfection 45
[10] = .8 nM oligonucleotide, mock transfection 33
[11] = 20 mg/kg intraperitoneally on days 5, 6, 7, sacrifice 14 days after IRI, 20 mg/kg
[12] = 20 mg/kg intraperitoneally on days 5, 6, 7, sacrifice 14 days after IRI, group mean
[13] = intraperitoneally on days 5, 6, 7, 14, 21, sacrifice Day 27

AEASATCSTGTCSTCAUSAATASAAE [Compound 25109, reference compound]
geometric mean of the urinary albumin to creatinine ratio [1]: 140 μgAlb/mgCr

AECSATCSAGTCSTGAUSAAGCSTAS (ACATCAGTCTGATAAGCTA; 2'-MOE and cEt modifications) [Compound 25923]
compound lacking the 3'-terminal nucleoside [2, 7]: about 18% | compound present as the full-length compound [2, 7]: About 68% | ex vivo (liver) N %↓ ([2]; 5 μM oligonucleotide in liver homogenate (50 mg tissue per ml), 24 hours, 37° C., decrease of full-length compound): 17% | ex vivo (liver) % N-1 ([2]; 5 μM oligonucleotide in liver homogenate, 24 hours, 37° C., compound lacking one terminal nucleoside): 13% | ex vivo (liver) % Endo ([2]; 5 μM oligonucleotide in liver homogenate, 24 hours, 37° C., endonuclease products): 2-3%

TE^MeCEAEAECSAETECSAEGETECSTEGEAEUSAEAEGECSTEAE (TCAACATCAGTCTGATAAGCTA; listed as DNA, chemistry not fully specified) [Compound 25068]
Collagen 1A1 (Normalized Expression), individual animal [3]: 84.7 and 75.1 and 85.5 and 89.1 and 90.4 and 125.8 and 124.4 | Collagen 3A1 (Normalized Expression), individual animal [3]: 64.8 and 56.2 and 47.4 and 76.2 and 57.0 and 63.0 and 59.6 | luciferase value normalized to beta-galactosidase activity [4, 8]: 64 | luciferase value normalized to beta-galactosidase activity ([4]; 20 nM oligonucleotide, mock transfection 47): 86 | luciferase value normalized to beta-galactosidase activity ([4]; 100 nM oligonucleotide, mock transfection 40): 97 | luciferase value normalized to beta-galactosidase activity [4, 9]: 45 | luciferase value normalized to beta-galactosidase activity [4, 10]: 54 | inhibition of miR-21 in the luciferase assay (in words) [4]: demonstrated inhibition of miR-21 in a dose-dependent manner

UECEAFAFCFAFUFCFAFGFUFCEUEGEAFUFAFAFGFCFUEAE (eU*eC*fA*fA*fC*fA*fU*fC*fA*fG*fU*eC*eU*eG*fA*fU*fA*fA*fG*fC*eU*eA) [Compound 25919, positive control, reference compound]
Collagen Area Fraction (#), individual animal [5, 11]: 7.093 and 8.254 and 8.095 and 8.559 and 8.681 and 6.31 and 8.416 and 9.905 | Collagen Area Fraction (#), Mean [5, 12]: 8.2 | Collagen Area Fraction (#), individual animal [5, 13]: 11.882 and 9.755 and 9.506 and 12.654 and 20.319 and 11.551 and 12.224 and 14.468 | Collagen 1A1 (Normalized Expression), individual animal [3]: 150.2 and 54.2 and 84.6 and 67.7 and 78.7 and 62.2 and 89.2 and 106.2 | Collagen 3A1 (Normalized Expression), individual animal [3]: 67.1 and 33.9 and 87.6 and 47.3 and 67.7 and 46.7 and 47.0 and 57.8 | Collagen 1A1 (Normalized Expression), individual animal [6, 11]: 108.7 and 103.9 and 29.5 and 95.8 and 35.5 and 42.2 and 64.1 and 96.4 | Collagen 3A1 (Normalized Expression), individual animal [6, 11]: 87.5 and 72.3 and 14.3 and 104 .4 and 27.1 and 34.9 and 56.1 and 82.8 | Collagen 1A1 (Normalized Expression), Mean [6, 12]: 72.0 | Collagen 1A1 (Normalized Expression), individual animal [6, 13]: 75.5 and 50.4 and 49.2 and 43.2 and 41.7 and 53.6 and 44.8 and 28.0 | Collagen 3A1 (Normalized Expression), individual animal [6, 13]: 40.2 and 43.1 and 34.5 and 35.7 and 41.1 and 36.9 and 24.5 and 22.9 | luciferase value normalized to beta-galactosidase activity [4, 8]: 84 | luciferase value normalized to beta-galactosidase activity [4, 9]: 40 | luciferase value normalized to beta-galactosidase activity [4, 10]: 53
